Data on four compounds can be found in US10273333B2, “Substituted polyesters by thiol-ene modification: rapid diversification for therapeutic protein stabilization” (THE REGENTS OF THE UNIVERSITY OF CALIFORNIA, priority 2014, dated 2019).

The subject of one data set is β-galactosidase (β-Gal). Particulars: three 12-hour desiccation (lyophilization) cycles; excipient; FIG. 12b.
Data set [1] can be described thus: Differential scanning calorimetry (DSC): melting and crystallization enthalpy of water. The data set is classed as physicochemical. The following applies: 1 mol % of the stabilizing unit; for ΔHc (change in crystallization enthalpy of water) / ΔHm (change in melting enthalpy of water): relative to water; for Hc (crystallization enthalpy of water) / Hm (melting enthalpy of water): second heat/cool run, in J/g (unit assumed). On the procedure: Solutions of trehalose, betaine, pCL-trehalose80, and pCL-zwitterion80 were made at 1 mol % of the stabilizing unit (trehalose or betaine) and analyzed by DSC (TA Instruments Q2000). Runs were carried out using two heat/cool cycles from −40° C. to 40° C. at […] and values were taken from the second run.
For orientation: In DSC, transitions show as peaks or steps in heat flow.

Another data set concerns the target lysozyme (Gallus gallus, UniProt P00698). Description: Lysozyme stabilization against heat stress (90° C., 20 minutes), EnzChek lysozyme activity assay. The data set is classed as biochemical. The following applies: heated 90° C. for 20 minutes; 5 to 25 wt eq. excipient; FIG. 12a. The procedure: The ability of these biodegradable trehalose polymers to stabilize proteins was confirmed through heat and lyophilization stress assays. […] Therefore, these proteins were also selected to test the biodegradable trehalose polymers. First, lysozyme was stressed by heating to 90° C. for 20 minutes.
[…] Samples were further diluted to a concentration of 0.021 mg/mL (1 kU/mL) and […] aliquots were prepared in 0.5 mL LoBind Eppendorf tubes. Each aliquot was heated to 90° C. for 20 minutes at 500 rpm, then cooled to 4° C. and centrifuged for 1 minute at 10,000 rpm. Samples were stored at 4° C. until activity was evaluated all together using the EnzChek® lysozyme activity assay.
Aliquots containing 20 μL of lysozyme-glycopolymer solution were diluted to 100 μL with PBS pH 7.4. 50 μL of the resulting solution was removed and incubated with 50 μL of Micrococcus luteus labeled with FITC (1 mg/mL) at 37° C. for 30 minutes in a 96-well plate. The resulting fluorescence was measured (abs 480 nm/em 530 nm) and quantified relative to a known concentration curve. Statistics to determine significance were calculated using the Students t test; % confidence as +/−=t(standard deviation)/(number of trials)½ with p<1−% confidence/100.

Data set [2] addresses T1, granulocyte colony-stimulating factor (G-CSF) (Homo sapiens, UniProt P09919).
T1 construct: host or cells: E. coli
T1 sequence (P09919 31-204 isoform P09919-2 limits assumed): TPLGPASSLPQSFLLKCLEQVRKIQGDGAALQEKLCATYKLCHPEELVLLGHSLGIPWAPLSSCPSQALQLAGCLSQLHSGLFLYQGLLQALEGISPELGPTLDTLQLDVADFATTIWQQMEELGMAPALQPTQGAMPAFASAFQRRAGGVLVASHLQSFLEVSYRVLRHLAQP
Put plainly: G-CSF stabilization studies; G-CSF bioactivity by NFS-60 cell proliferation (CellTiter-Blue). The following applies: 60° C. for 30 minutes; small molecules at the concentration of stabilizing units in pCL-zwitterion80, Tween 80 and polymers at 100 weight equivalents; FIG. 74. In kind it is cell-based. The procedure:
G-CSF Stabilization Studies: G-CSF samples (25 μL) were prepared in 10 mM acetate buffer, pH 4.0 at 1 μg/mL with 100 equivalents polymer additive by weight. Samples were stored at 4° C. for 90 minutes or 60° C. for 30 minutes and then were diluted with cold RPMI-1640 medium+10% FBS (735 μL). The samples were then further diluted with RPMI-1640+10% FBS to a final concentration of 1 ng/mL. G-CSF bioactivity was then assayed in a NFS-60 mouse myelogenous leukemia lymphoblast cell line. NFS-60 cells were cultured in RPMI-1640 medium supplemented with 10% FBS and 2 ng/mL interleukin-3 (IL-3) at 37° C./5% CO2. NFS-60 cells were passaged at least three times before used in proliferation experiments. Prior to treating NFS-60 cells with G-CSF samples, NFS-60 cells were collected and resuspended in RPMI-1640 with 10% FBS (without additional growth factors). Cells were plated in the internal wells of a 96 well plate at a density of 20,000 cells per well in 50 μL of medium. G-CSF solution (50 μL) was then added to provide a final concentration of 0.5 ng/mL and total well volume of 100 μL. Following 48 h incubation at 37° C./5% CO2, CellTiter-Blue viability assay was performed to measure cell proliferation. All experimental groups were normalized to the control of the control of media alone without G-CSF addition. All p values were calculated using the independent Student's t test assuming unequal variances.
Next the ability of the polymer to protect protein activity against environmental stressors was assessed. The therapeutic protein granulocyte colony-stimulating factor (G-CSF) was selected to compare excipient efficacy due to its clinical importance. […] G-CSF is highly unstable at physiological pH and is therefore stored at pH 4.0; still at this pH the protein readily degrades upon storage or subjection to heat (Krishnan et al., 2002). […] Protein activity was determined by measuring cell proliferation in murine myeloid leukemia NFS-60 cells, which is enhanced in the presence of GCSF, and compared to the proliferation of freshly diluted protein (Shirafuji et al., 1989).
In general terms: The colour change of resazurin is a common sign of viable cells or microbes.

Chain of lysozyme (P00698 19-147): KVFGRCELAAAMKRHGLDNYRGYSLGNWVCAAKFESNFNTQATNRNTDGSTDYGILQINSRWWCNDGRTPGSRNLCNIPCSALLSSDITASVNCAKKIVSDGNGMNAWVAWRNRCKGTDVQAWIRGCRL
Experimental for β-galactosidase (β-Gal): The stabilization of β-Gal against lyophilization stress was also measured. […] The activity of β-Gal was determined by reaction with ortho-nitrophenol galactose (ONPG). When incubated with β-Gal, release of the yellow-colored o-nitrophenol from ONPG can be monitored at 405 nm.
The activity of β-Gal was determined by reaction with ortho-nitrophenol galactose (ONPG). When incubated with β-Gal, release of the yellow-colored o-nitrophenol from ONPG can be monitored at 405 nm.
Lyophilization studies with β-galactosidase were carried out as previously described; 8-Gal was subjected to three 12 hour lyophliization cycles before dilution. Activity was assayed by monitoring the hydrolysis of o-nitrophenol galactose (ONPG) at 405 nm.

As to `OC[C@H]1O[C@H](O[C@H]2O[C@H](CO)[C@@H](O)[C@H](O)[C@H]2O)[C@H](O)[C@@H](O)[C@@H]1O` [trehalose], the “β-Gal activity maintained (of native activity)” value in the data set with β-galactosidase (β-Gal) is reported as “up to 67%”. In addition, in data set [1], the “ΔHc (change in crystallization enthalpy of water)” value is on record as 22.3, the “ΔHm (change in melting enthalpy of water)” value is −47.4, the “Hc (crystallization enthalpy of water)” value was −229.9 and the “Hm (melting enthalpy of water)” value was 249.1. Moreover, at lysozyme, the “lysozyme activity retained (of native activity)” value is “not significantly different from the negative control”.
As for `CCCCCCCC/C=C\CCCCCCCC(=O)OCCOCC(OCCO)C1OCC(OCCO)C1OCCO` (stereo not shown) [Tween 80, polysorbate 80], the “G-CSF activity / cell proliferation, comparison with small-molecule excipients” value (“G-CSF activity / cell proliferation” below) in data set [2] is “maintained high protein activity”.
For the compound `OC[C@H]1O[C@@](CO)(O[C@H]2O[C@H](CO)[C@@H](O)[C@H](O)[C@H]2O)[C@@H](O)[C@@H]1O` [sucrose], the “G-CSF activity / cell proliferation” value in data set [2] was “little stabilizing effect”.
`C[N+](C)(C)CC(=O)O` [betaine]: in data set [1], the “ΔHc (change in crystallization enthalpy of water)” value is on record as 73.2, the “ΔHm (change in melting enthalpy of water)” value was −98.4, the “Hc (crystallization enthalpy of water)” value is −179 and the “Hm (melting enthalpy of water)” value amounted to 198.1. In addition, the “G-CSF activity / cell proliferation” value in data set [2] is reported as “little stabilizing effect”.
